Results on 32 compounds are retold here after ChEMBL document CHEMBL1201862, “PubChem BioAssay data set” (2004).

Usually IC50 stands for the concentration needed to halve the response being measured. For orientation: EC50 means the concentration giving half of the maximal effect. A word on the AC50: it is the concentration at which the activity in the assay is half-maximal.

Molecules are shown by their SMILES. Active and inactive are the calls of the source. Where only a bound is given, the exact number is not on record here.

For experiment [1], the target named is Induced myeloid leukemia cell differentiation protein Mcl-1 (Homo sapiens, UniProt Q07820). Type of experiment: functional.
A short description of experiment [2]: Luminescence Cell-Based Dose Confirmation HTS to Identify Inhibitors of Platelet Dense Granule Release. [Related pubchem assays: 1663 (Primary HTS), 1678 (Summary of Project)]. Type of experiment: functional.
The target in experiment [3] is Luciferin 4-monooxygenase (Photinus pyralis, UniProt P08659). The experiment can be described thus: firefly luciferase enzyme inhibitors, dose response, biochemical, luminescence (AID 1891).
For experiment [4], the target named is FAD-linked sulfhydryl oxidase ALR (Homo sapiens, UniProt P55789). Description: inhibitors of human ALR sulfhydryl oxidase, dose response, biochemical, H2O2 detection, luminescence, cherry-pick (AID 493248).
Experiment [5] deals with T1, Heat shock factor protein 1 (Mus musculus, UniProt P38532).
T1 sequence (P38532 whole entry): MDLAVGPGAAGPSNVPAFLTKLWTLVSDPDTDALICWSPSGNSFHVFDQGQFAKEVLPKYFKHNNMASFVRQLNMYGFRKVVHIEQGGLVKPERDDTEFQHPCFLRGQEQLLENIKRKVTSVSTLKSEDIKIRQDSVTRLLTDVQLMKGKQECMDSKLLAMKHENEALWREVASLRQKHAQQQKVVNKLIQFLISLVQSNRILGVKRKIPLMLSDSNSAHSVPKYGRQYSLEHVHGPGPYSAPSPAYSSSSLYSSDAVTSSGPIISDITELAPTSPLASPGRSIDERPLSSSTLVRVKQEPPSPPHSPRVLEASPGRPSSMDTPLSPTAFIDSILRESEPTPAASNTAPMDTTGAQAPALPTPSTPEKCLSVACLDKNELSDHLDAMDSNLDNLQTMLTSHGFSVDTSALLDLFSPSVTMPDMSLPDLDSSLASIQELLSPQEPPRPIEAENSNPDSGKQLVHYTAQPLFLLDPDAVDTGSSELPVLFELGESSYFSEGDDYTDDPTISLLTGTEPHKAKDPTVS
Description: HSF1 potentiators in luciferase reporter cells, confirmation, cell-based, NIH3T3, luminescence, dose retest (AID 435004).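 Note: stress induced by proteasome inhibitor MG132 added 30 min after compound; luciferase reporter driven by HSF1 response element in NIH3T3 cells; actives raise luminescence as potentiators of the MG132 stress response.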 The format is functional. For orientation: Reporter assays use an easily measured gene product as a stand-in for the process of interest.

Experiment [6] addresses Cytochrome P450 3A4 (Homo sapiens, UniProt P08684).
Experiment [7] is described as follows: cells. Type of experiment: functional.
For experiment [8], the target named is Nonstructural protein 1 (Influenza A virus, UniProt Q194T2). The format is functional, Influenza A virus (A/California/07/2009(H1N1)).
The nature of experiment [9]: Luminescence Cell-Based Dose Response HTS to Identify Inhibitors of 5'UTR Stem-Loop Driven Prion Protein mRNA Translation in H4 Neuroglioblastoma Cells. [Related pubchem assays: 1827 (Project Summary), 1813 (Primary HTS)]. Type of experiment: functional.
Experiment [10] in a line: Shn3 3'UTR reporter inhibitors, dose response, cell-based, Clone20 osteoblasts, firefly luciferase, cherry-picked (AID 624132).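 Note: firefly luciferase luminescence from reporter carrying the Shn3 3'UTR in osteoblasts.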 The format is functional.
Experiment [11] in a line: control 3'UTR Renilla luciferase suppression, dose response, counter-screen for Shn3 inhibitor project, cell-based, Clone20-Shn3RL, cherry-picked (AID 624133). Type of experiment: functional.
The nature of experiment [12]: inhibitors of firefly luciferase expression or activity, dose response, H4 neuroglioma cells, luminescence (AID 1990). The format is functional, cell-based.
Experiment [13] is described as follows: inhibitors of SNCA 5'UTR-driven reporter translation, confirmation, H4 neuroglioma cells, luminescence (AID 1988). Type of experiment: functional, cell-based.
Experiment [14] in a line: HepG2 cell cytotoxicity, dose response, cytotoxicity control for Shn3 inhibitor project, CellTiter-Glo, cherry-picked (AID 624134). Type of experiment: functional, cell-based. For orientation: Cellular ATP, detected with luciferase, serves as a proxy for viable cell number.
The target in experiment [15] is T2, Replicative DNA helicase DnaB (Mycobacterium tuberculosis, UniProt P9WMR3).
T2 sequence (P9WMR3 whole entry): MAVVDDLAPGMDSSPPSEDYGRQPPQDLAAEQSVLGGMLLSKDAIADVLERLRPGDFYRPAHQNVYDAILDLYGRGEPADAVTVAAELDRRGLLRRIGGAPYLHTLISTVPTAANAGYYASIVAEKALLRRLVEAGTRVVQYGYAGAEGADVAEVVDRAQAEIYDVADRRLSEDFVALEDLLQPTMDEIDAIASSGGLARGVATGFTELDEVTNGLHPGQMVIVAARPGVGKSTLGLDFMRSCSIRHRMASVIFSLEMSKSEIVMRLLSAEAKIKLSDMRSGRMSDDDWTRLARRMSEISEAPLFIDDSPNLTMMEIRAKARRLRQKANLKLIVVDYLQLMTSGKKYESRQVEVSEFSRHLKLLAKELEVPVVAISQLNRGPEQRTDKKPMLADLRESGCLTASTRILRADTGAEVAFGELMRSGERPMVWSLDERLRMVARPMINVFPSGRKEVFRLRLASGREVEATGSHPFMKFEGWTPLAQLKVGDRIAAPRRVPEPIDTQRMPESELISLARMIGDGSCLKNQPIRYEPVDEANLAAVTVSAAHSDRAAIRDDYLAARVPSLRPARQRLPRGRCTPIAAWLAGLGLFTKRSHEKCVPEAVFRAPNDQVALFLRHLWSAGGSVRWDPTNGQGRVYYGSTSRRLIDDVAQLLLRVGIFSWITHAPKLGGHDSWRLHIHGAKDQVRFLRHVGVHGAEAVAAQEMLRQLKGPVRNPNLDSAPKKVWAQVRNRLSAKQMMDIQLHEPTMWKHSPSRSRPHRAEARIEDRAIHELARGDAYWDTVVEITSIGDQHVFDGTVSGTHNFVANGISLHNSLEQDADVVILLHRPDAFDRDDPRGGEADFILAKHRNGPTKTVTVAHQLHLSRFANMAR
Description: DnaB intein splicing inhibitors, dose response, biochemical, cell-free fluorescence (AID 449749). The format is functional.

Experiment [16] has as its target T3, Protein RecA (Mycobacterium tuberculosis, UniProt P9WHJ3).
T3 sequence (P9WHJ3 whole entry): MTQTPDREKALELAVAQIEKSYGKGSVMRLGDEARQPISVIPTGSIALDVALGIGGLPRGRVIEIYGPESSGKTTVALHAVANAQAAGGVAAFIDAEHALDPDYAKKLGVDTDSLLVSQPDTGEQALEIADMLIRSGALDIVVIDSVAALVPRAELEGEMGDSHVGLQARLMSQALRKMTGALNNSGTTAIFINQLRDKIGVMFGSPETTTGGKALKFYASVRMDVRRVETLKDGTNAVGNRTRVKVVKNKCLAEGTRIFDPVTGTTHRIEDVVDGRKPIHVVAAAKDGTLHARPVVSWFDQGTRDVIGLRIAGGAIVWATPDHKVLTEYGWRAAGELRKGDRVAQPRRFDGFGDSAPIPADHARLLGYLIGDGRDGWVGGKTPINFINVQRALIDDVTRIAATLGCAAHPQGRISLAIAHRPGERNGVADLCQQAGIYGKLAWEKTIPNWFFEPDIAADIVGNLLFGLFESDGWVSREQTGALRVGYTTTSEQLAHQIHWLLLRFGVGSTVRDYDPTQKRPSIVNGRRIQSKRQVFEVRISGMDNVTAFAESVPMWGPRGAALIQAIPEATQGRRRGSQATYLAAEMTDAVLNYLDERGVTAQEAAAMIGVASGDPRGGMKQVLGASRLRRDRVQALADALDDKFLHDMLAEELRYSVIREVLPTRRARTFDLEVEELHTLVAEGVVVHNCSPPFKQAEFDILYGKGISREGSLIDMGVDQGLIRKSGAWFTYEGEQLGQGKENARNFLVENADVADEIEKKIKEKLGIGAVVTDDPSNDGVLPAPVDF
Description: Fluorescence Cell-Free Homogeneous Dose Retest to Identify Inhibitors of RecA-Intein Splicing Activity. [Related pubchem assays (depositor defined):AID2097, AID2223, AID489010, AID492950]. The format is functional.

The target of experiment [17] is T1, Heat shock factor protein 1. Description: inhibition of MG132-induced HSE-luciferase signal, confirmation, cell-based, NIH3T3, luminescence, dose retest (AID 2382).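 Note: NIH3T3 fibroblasts with HSF1-driven luciferase reporter stressed by proteasome inhibitor MG132; luminescence from HSF1-driven luciferase expression after 8 hours of MG132 stress.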 Type of experiment: functional.
For experiment [18], the target named is Cytochrome P450 2C19 (Homo sapiens, UniProt P33261). Description: Cytochrome panel assay with activity outcomes. Panel member name: p450-cyp2c19 Compounds with AC50 equal or less than 10 uM are considered active. The format is functional. Particulars: read-out: AC50.
Sequence of Cytochrome P450 2C19 (P33261 whole entry): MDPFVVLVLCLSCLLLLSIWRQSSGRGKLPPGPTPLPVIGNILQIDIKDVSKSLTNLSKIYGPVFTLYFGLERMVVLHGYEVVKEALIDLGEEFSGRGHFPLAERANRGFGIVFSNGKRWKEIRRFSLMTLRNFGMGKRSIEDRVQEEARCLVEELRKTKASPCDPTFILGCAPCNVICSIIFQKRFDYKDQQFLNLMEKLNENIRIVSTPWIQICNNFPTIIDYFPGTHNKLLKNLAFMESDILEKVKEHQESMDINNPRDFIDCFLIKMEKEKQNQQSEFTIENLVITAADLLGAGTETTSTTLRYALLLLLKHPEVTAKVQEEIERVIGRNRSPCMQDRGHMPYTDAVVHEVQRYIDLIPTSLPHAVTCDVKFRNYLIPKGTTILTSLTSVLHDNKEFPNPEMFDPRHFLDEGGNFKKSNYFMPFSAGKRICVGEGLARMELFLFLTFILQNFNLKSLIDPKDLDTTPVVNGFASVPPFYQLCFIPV

Sequence of Luciferin 4-monooxygenase (P08659 whole entry): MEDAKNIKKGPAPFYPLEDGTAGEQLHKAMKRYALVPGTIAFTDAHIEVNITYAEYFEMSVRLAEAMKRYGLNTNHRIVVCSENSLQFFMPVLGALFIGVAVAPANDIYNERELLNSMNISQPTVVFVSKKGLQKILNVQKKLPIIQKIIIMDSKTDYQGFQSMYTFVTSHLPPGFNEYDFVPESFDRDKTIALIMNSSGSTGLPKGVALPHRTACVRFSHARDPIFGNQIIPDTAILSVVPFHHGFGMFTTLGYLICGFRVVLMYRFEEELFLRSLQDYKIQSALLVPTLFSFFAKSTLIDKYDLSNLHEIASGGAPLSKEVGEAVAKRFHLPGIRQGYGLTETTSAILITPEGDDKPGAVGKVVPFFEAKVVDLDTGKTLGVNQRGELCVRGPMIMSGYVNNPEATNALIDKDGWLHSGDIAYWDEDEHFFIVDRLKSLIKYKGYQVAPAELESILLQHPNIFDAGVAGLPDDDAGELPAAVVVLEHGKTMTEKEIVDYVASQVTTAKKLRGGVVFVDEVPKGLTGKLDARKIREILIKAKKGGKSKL
Sequence of Nonstructural protein 1 (Q194T2 whole entry): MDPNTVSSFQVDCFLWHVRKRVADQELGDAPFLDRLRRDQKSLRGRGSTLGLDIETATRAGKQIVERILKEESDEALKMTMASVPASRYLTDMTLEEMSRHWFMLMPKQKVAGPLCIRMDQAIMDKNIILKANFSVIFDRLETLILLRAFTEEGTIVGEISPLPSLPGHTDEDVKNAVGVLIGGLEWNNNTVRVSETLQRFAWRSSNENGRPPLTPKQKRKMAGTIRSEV
Sequence of FAD-linked sulfhydryl oxidase ALR (P55789 whole entry): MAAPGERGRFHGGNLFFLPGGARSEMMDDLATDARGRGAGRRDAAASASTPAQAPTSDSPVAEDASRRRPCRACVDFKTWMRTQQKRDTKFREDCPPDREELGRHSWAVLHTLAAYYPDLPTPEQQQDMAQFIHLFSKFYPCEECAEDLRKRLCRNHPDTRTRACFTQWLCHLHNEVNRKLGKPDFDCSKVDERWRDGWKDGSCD
Sequence of Induced myeloid leukemia cell differentiation protein Mcl-1 (Q07820 whole entry): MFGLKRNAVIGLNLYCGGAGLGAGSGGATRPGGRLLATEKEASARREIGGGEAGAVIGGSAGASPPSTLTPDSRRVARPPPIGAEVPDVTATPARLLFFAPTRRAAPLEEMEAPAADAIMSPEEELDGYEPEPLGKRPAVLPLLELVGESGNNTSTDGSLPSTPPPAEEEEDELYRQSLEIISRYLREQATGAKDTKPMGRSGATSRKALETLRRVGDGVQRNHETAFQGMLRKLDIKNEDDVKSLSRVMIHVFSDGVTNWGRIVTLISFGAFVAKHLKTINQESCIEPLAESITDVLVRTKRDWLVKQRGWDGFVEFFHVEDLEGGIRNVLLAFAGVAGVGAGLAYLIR
Sequence of Cytochrome P450 3A4 (P08684 whole entry): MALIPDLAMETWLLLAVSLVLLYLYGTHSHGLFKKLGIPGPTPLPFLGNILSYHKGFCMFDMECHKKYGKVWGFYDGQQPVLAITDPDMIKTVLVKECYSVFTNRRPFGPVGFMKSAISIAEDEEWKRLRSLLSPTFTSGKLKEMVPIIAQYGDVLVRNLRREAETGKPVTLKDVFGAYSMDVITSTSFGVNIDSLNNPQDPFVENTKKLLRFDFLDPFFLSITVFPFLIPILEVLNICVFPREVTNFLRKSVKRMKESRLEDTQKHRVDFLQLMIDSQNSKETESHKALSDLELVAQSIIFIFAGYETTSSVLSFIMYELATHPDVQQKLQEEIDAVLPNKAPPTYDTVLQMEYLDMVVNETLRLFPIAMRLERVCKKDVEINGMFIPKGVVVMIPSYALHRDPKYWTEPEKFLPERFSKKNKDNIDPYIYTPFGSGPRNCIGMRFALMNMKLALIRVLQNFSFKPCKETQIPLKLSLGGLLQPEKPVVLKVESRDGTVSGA

Regarding `CC(C)c1ccc(Nc2nnc(SCC(=O)c3nnc(-c4ccccc4)o3)s2)cc1`, in experiment [1], the IC50 is 2.72 µM (active).
As for `CC(C(=O)Nc1cc([N+](=O)[O-])ccc1Cl)N1CCN(c2ccc(O)cc2)CC1` (stereo not given), in experiment [1], the IC50 was 4.33 µM (not active).
With `Cc1ccc2c(CC(=O)N3CCN(S(=O)(=O)c4cccs4)CC3)coc2c1`, the 50% effective concentration (EC50) in experiment [2] and in [3] was > 112 µM (not active) in each case.
For `CC(=O)NCCC(=O)Nc1sc2c(c1-c1nc3ccccc3[nH]1)CCCC2`, the concentration at half-maximal activity (AC50) in [4] was 4.69 µM (active).
Regarding `COc1ccc2cc(S(=O)(=O)N3CCCCC3)ccc2c1S(=O)(=O)N1CCCCC1`, the EC50 in [5] was > 260 µM (inactive).
On to `CNc1nc2c(N)ncnc2n1[C@H]1O[C@@H](CO)[C@H](O)[C@@H]1O`, for which the concentration for a half-maximal effect (EC50) was 1.36 µM (active) in [2] and > 112 µM (not active) in [3].
For `Cc1ccc(NC(=O)N/C=C/c2ccco2)cc1C`, the values for the AC50 in [4] and in experiment [6] were 1.7 µM (active) and 12.6 µM (inconclusive), respectively.
As to `OCCN1CCN(CC(O)COc2ccc(Cl)cc2)CC1` (stereo not given), the EC50 in experiment [2] and in experiment [3] was > 112 µM (not active) each time.
In the case of `CN(C)c1ccc(CN(C(=O)c2ccco2)C2CCS(=O)(=O)C2)cc1` (stereo not given), the AC50 in experiment [4] is 4.16 µM (active).
`CC(=O)c1ccc(OC(=O)c2ccc(-n3nc(C)cc3C)cc2)cc1`: the IC50 in experiment [7] was 7.6 µM (active).
Regarding `O=C1C(NS(=O)(=O)c2cccs2)=C(N2CCN(c3ccccc3)CC2)C(=O)c2ccccc21`, the IC50 in [8] was 21.6 µM (active).
Take `CCc1c(C)sc(NC(=O)c2ccc(Br)o2)c1C(=O)OC`: the EC50 in experiment [5] is > 260 µM (inactive).
On to `COc1ccc(P(=O)(COc2ccc([N+](=O)[O-])cc2)c2ccc(OC)cc2)cc1`, for which the 50% effective concentration (EC50) in [2] and in [3] was > 112 µM (not active) in each case.
With `CN(C1=C(N2CCCCC2)C(=O)c2ccccc2C1=O)c1ccccc1`, in [8], the 50% inhibitory concentration (IC50) was 6.94 µM (active).
As to `CN(C)c1ccc(C2CC(c3cccc(NS(C)(=O)=O)c3)=NN2C(=O)c2ccccc2)cc1` (stereo not given), the IC50 in [8] is > 100 µM (active).
Still for that read-out and setting: with `O=[N+]([O-])c1ccc(Nc2ccc(N3CCOCC3)cc2)c([N+](=O)[O-])c1` the figure was 71.6 µM (active).
For `Cc1ccc(Cn2cc(S(=O)(=O)c3ccc(Cl)cc3)c(=O)c3cc(F)ccc32)cc1`, in experiment [5], the EC50 is > 260 µM (inactive).
Take `COCc1nnc(NC(=O)CSCc2ccccc2)s1`: the EC50 in experiment [2] and in [3] was > 112 µM (not active) each time.
In the case of `O=C(CSc1n[nH]c(-c2ccccn2)n1)Nc1cccc(Cl)c1`, the results for the concentration for a half-maximal effect (EC50) in [9], in experiment [12] and in experiment [13] were 8.65 µM (active), 10.3 µM (active) and 9 µM (active), respectively. The IC50 in experiment [8] was 8.24 µM (active). The results for the concentration at half-maximal activity (AC50) in experiment [10], in [11] and in experiment [14] were 2.9 µM (active), 2.9 µM (active) and 3.81 µM (active), respectively.
For the compound `COCc1cc(CN2CCCC(C(=O)Nc3ccc(-c4ccco4)cc3)C2)ccc1OC` (stereo not given), the EC50 in [5] is > 260 µM (inactive).
Still for that read-out and setting: with `CCC(C)(C)c1ccc(OC(=O)c2cccnc2Cl)cc1` the figure was 46.8 µM (active).
Regarding `Cc1ccccc1-n1c(C)cc(/C=N/NC(=O)c2ccncc2)c1C`, the IC50 in experiment [7] was 0.18 µM (active).
As to `O=c1[nH]c(CCl)nc2cc(-c3ccc(F)cc3)sc12`, the AC50 in [15] was 11.7 µM (active). The EC50 was 5.66 µM (active) in experiment [16] and 32.1 µM (active) in experiment [5].
Turning to `CCOC(=O)c1c(O)nc2ccccc2c1N1CCCCC1`, the EC50 in experiment [17] is listed as > 195 µM (not active); in experiment [2] it was > 112 µM (not active); in experiment [3], > 112 µM (not active).
With `CC1=NN(C(=O)c2csc(C)c2C)C(O)(C(F)(F)F)C1` (stereo not given), in experiment [7], the half-maximal inhibitory concentration (IC50) is 42.3 µM (active).
Take `CN(CCCNC(=O)c1cccc(N2CCCC2=O)c1)c1ccccc1`: the concentration at half-maximal activity (AC50) in [4] was 0.823 µM (active).
The same measure, in the same setting: as for `C=CCn1c(S)nnc1-c1ccccc1[N+](=O)[O-]`, the figure is 1.69 µM (active).
On the same count and under the same terms, as for `Cc1occc1C(=O)N1CCCC(Nc2ccc(C(C)C)cc2)C1` (stereo not given), the figure is 3.97 µM (active).
Take `CC(C)(C)NC(=O)c1cccc(NC(=O)CSc2ccc(Cl)cc2)c1`: the EC50 in experiment [5] was > 260 µM (inactive).
Regarding `O=C1CSC(=S)N1N=Cc1ccccc1O`, the IC50 in experiment [8] is 1.75 µM (active).
Take `Cc1oc(=O)c(NC(=O)c2ccccc2)cc1C(=O)c1ccccc1`: the concentration at half-maximal activity (AC50) in experiment [18] was 8.91 µM (inconclusive). Further, the IC50 in experiment [7] was > 50 µM (active).
As to `COc1cccc(N2CCN(Cc3nnnn3C3CCCCC3)CC2)c1`, the EC50 in [17] is > 195 µM (not active). Moreover, the AC50 in [4] is 5.12 µM (active).
